This note sets out measurements from US12606541B2, “PPARg modulators and methods of use” (Eisai R&D Management Co., Ltd., priority 2020, dated 2026).

SMILES strings stand for the structures.

The target in one experiment is T1, His6-TEV-PPARγ-(234-505) (Homo sapiens, UniProt P37231).
T1 construct: The His6-TEV-PPARγ-(234-505) protein for assay was expressed and purified; TEV cleavage site (N); made in house
T1 sequence (P37231 234-505): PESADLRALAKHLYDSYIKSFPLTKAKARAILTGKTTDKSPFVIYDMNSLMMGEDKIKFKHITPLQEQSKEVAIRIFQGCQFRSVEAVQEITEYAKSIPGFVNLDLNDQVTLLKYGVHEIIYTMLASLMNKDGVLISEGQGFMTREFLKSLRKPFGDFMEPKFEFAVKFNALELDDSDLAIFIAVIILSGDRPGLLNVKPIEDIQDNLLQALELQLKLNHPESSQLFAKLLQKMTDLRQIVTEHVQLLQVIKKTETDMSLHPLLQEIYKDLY
Put plainly: TR-FRET Assay to Measure Co-R Peptide Recruitment to PPARγ. The class given is biochemical. Conditions: Co-R peptide (SMRT-ID2) recruitment; top final concentration 20 μM; read-out: TR-FRET i-Ag; AC50. In short, it runs like this:
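His-tagged PPARγ (or controls) was preincubated with compound for 20 minutes at room temperature, then 5 nM anti-His terbium antibody and 200 nM FITC-labeled SMRT-ID2 corepressor peptide (final) were added for a further hour. TR-FRET signal was normalized to percent response using 500 nM T0070907 and DMSO controls.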

The test system of a further experiment is UM-UC-9 engineered cells. Put plainly: Cell proliferation / short-term viability assay, CellTiter-Glo 144 h. The class given is cell-based, human. Conditions: Homo sapiens, UM-UC-9, 144 h, read-out: CTGlo 144 h UMUC9.5, G150. The procedure, abridged:
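UM-UC-9 engineered assay-ready cells seeded at 500 cells/well in high-glucose DMEM/10% FBS, treated from dose-response plates, grown at 37° C, 5% CO2. CellTiter-Glo 2.0 luminescence read on day 7, with a day-0 pretreatment plate as T0 reference and DMSO wells as negative control.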
On the technique in general: Cellular ATP, detected with luciferase, serves as a proxy for viable cell number.

Take `COc1cc(-c2cc(C(=O)N3CCC(C(=O)N[C@H]4CC[C@](C)(O)CC4)CC3)n[nH]2)c(Cl)cn1` [Example 198, 1-(5-(5-chloro-2-methoxypyridin-4-yl)-1H-pyrazole-3-carbonyl)-N-((1r,4r)-4-hydroxy-4-methylcyclohexyl)piperidine-4-carboxamide]: the AC50 on His6-TEV-PPARγ-(234-505) was 917 nM. Also, in the experiment on UM-UC-9 engineered cells, the IC50 was found to be 4160 nM.

As for `COc1cc(-c2cc(C(=O)N3CCC(C(=O)N[C@H]4CC[C@@](O)(C(F)(F)F)CC4)CC3)n[nH]2)c(Cl)cn1` [Example 199, 1-(5-(5-chloro-2-methoxypyridin-4-yl)-1H-pyrazole-3-carbonyl)-N-((1r,4r)-4-hydroxy-4-(trifluoromethyl)cyclohexyl)piperidine-4-carboxamide], the AC50 on His6-TEV-PPARγ-(234-505) came to 32 nM. In the experiment on UM-UC-9 engineered cells, the IC50 came out at 140 nM.

Turning to `COc1cc(-c2cc(C(=O)N3CCC(C(=O)NCc4ccc5[nH]nc(F)c5c4)CC3)n[nH]2)c(F)cn1` [Example 200, N-((3-fluoro-1H-indazol-5-yl)methyl)-1-(5-(5-fluoro-2-methoxypyridin-4-yl)-1H-pyrazole-3-carbonyl)piperidine-4-carboxamide], the AC50 on His6-TEV-PPARγ-(234-505) is 112 nM. Besides, the IC50 in the experiment with UM-UC-9 engineered cells is 71.5 nM.

As for `COc1cc(-c2cc(C(=O)N3CCC(C(=O)NCc4n[nH]c5ccccc45)CC3)n[nH]2)c(Cl)cn1` [Example 201, N-((1H-indazol-3-yl)methyl)-1-(5-(5-chloro-2-methoxypyridin-4-yl)-1H-pyrazole-3-carbonyl)piperidine-4-carboxamide], the AC50 at His6-TEV-PPARγ-(234-505) is 77.5 nM. Also, the IC50 in the experiment with UM-UC-9 engineered cells came to 171 nM.

For `COc1cc(-c2cc(C(=O)N3CCC(C(=O)NCc4c[nH]c5ncccc45)CC3)n[nH]2)c(Cl)cn1` [Example 202, N-((1H-pyrrolo[2,3-b]pyridin-3-yl)methyl)-1-(5-(5-chloro-2-methoxypyridin-4-yl)-1H-pyrazole-3-carbonyl)piperidine-4-carboxamide], on His6-TEV-PPARγ-(234-505), the AC50 was 136 nM. Moreover, the IC50 in the experiment with UM-UC-9 engineered cells stood at 1590 nM.

On to `COc1cc(-c2cc(C(=O)N3CCC(C(=O)NCc4ccc5[nH]c(C)cc5c4)CC3)n[nH]2)c(Cl)cn1` [Example 203, 1-(5-(5-chloro-2-methoxypyridin-4-yl)-1H-pyrazole-3-carbonyl)-N-((2-methyl-1H-indol-5-yl)methyl)piperidine-4-carboxamide], for which, on His6-TEV-PPARγ-(234-505), the AC50 was 77.4 nM. For the same compound, the IC50 in the experiment with UM-UC-9 engineered cells worked out at 96.4 nM.

With `COc1cc(-c2cc(C(=O)N3CCC(C(=O)NCc4ccc5[nH]nc(C)c5c4)CC3)n[nH]2)c(F)cn1` [Example 204, 1-[5-(5-fluoro-2-methoxypyridin-4-yl)-1H-pyrazole-3-carbonyl]-N-[(3-methyl-1H-indazol-5-yl)methyl]piperidine-4-carboxamide], the AC50 on His6-TEV-PPARγ-(234-505) amounted to 20.2 nM. In the experiment on UM-UC-9 engineered cells, the IC50 turned out to be 83.3 nM.

Regarding `COc1cc(-c2cc(C(=O)N3CCC(C(=O)Nc4cnn(C(C)C)c4)CC3)n[nH]2)c(Cl)cn1` [Example 205, 1-(5-(5-chloro-2-methoxypyridin-4-yl)-1H-pyrazole-3-carbonyl)-N-(1-isopropyl-1H-pyrazol-4-yl)piperidine-4-carboxamide], the AC50 at His6-TEV-PPARγ-(234-505) was found to be 912 nM. In addition, the IC50 in the experiment with UM-UC-9 engineered cells was 3110 nM.

`COc1cc(-c2cc(C(=O)N3CCC(C(=O)NCc4ccc5c(ccn5C)c4)CC3)n[nH]2)c(Cl)cn1` [Example 206, 1-(5-(5-chloro-2-methoxypyridin-4-yl)-1H-pyrazole-3-carbonyl)-N-((1-methyl-1H-indol-5-yl)methyl)piperidine-4-carboxamide]: at His6-TEV-PPARγ-(234-505), the AC50 turned out to be 13.8 nM. In addition, the IC50 with UM-UC-9 engineered cells turned out to be 86.6 nM.

On to `COc1cc(-c2cc(C(=O)N3CCC(C(=O)NC4COc5ccc(Cl)cc54)CC3)n[nH]2)c(Cl)cn1` (stereo not shown) [Example 208, N-(5-chloro-2,3-dihydrobenzofuran-3-yl)-1-(5-(5-chloro-2-methoxypyridin-4-yl)-1H-pyrazole-3-carbonyl)piperidine-4-carboxamide], for which the AC50 at His6-TEV-PPARγ-(234-505) was determined as 34.7 nM. In the experiment on UM-UC-9 engineered cells, the IC50 was 290 nM.

`COc1cc(-c2cc(C(=O)N3CCC(C(=O)NCc4nccc(C(F)(F)F)n4)CC3)n[nH]2)c(Cl)cn1` [Example 209, 1-(5-(5-chloro-2-methoxypyridin-4-yl)-1H-pyrazole-3-carbonyl)-N-((4-(trifluoromethyl)pyrimidin-2-yl)methyl)piperidine-4-carboxamide]: at His6-TEV-PPARγ-(234-505), the AC50 was determined as 319 nM. For the same compound, in the experiment on UM-UC-9 engineered cells, the IC50 is 2370 nM.

Regarding `COc1cc(-c2cc(C(=O)N3CCC(C(=O)NCc4cn5c(C)cccc5n4)CC3)n[nH]2)c(Cl)cn1` [Example 210, 1-(5-(5-chloro-2-methoxypyridin-4-yl)-1H-pyrazole-3-carbonyl)-N-((5-methylimidazo[1,2-a]pyridin-2-yl)methyl)piperidine-4-carboxamide], the AC50 on His6-TEV-PPARγ-(234-505) came to 259 nM. In addition, the IC50 in the experiment on UM-UC-9 engineered cells was determined as 1680 nM.

Regarding `COc1cc(-c2cc(C(=O)N3CCC(C(=O)NCc4ncc(C(F)(F)F)cn4)CC3)n[nH]2)c(Cl)cn1` [Example 211, 1-(5-(5-chloro-2-methoxypyridin-4-yl)-1H-pyrazole-3-carbonyl)-N-((5-(trifluoromethyl)pyrimidin-2-yl)methyl)piperidine-4-carboxamide], the AC50 on His6-TEV-PPARγ-(234-505) was determined as 462 nM. Also, the IC50 with UM-UC-9 engineered cells worked out at 3260 nM.

On to `COc1cc(-c2cc(C(=O)N3CCC(C(=O)NCc4cc5cc[nH]c5cn4)CC3)n[nH]2)c(Cl)cn1` [Example 212, N-((1H-pyrrolo[2,3-c]pyridin-5-yl)methyl)-1-(5-(5-chloro-2-methoxypyridin-4-yl)-1H-pyrazole-3-carbonyl)piperidine-4-carboxamide], for which the AC50 on His6-TEV-PPARγ-(234-505) came out at 79.2 nM. Moreover, in the experiment on UM-UC-9 engineered cells, the IC50 worked out at 782 nM.

On to `COc1cc(-c2cc(C(=O)N3CCC(C(=O)NCc4cn5cccc(F)c5n4)CC3)n[nH]2)c(Cl)cn1` [Example 214, 1-(5-(5-chloro-2-methoxypyridin-4-yl)-1H-pyrazole-3-carbonyl)-N-((8-fluoroimidazo[1,2-a]pyridin-2-yl)methyl)piperidine-4-carboxamide], for which the AC50 at His6-TEV-PPARγ-(234-505) came to 194 nM. Also, in the experiment with UM-UC-9 engineered cells, the IC50 is 1590 nM.

Turning to `COc1cc(-c2cc(C(=O)N3CCC(C(=O)NCc4ccc5[nH]c(C)nc5c4)CC3)n[nH]2)c(Cl)cn1` [Example 215, 1-(5-(5-chloro-2-methoxypyridin-4-yl)-1H-pyrazole-3-carbonyl)-N-((2-methyl-1H-benzo[d]imidazol-5-yl)methyl)piperidine-4-carboxamide], the AC50 at His6-TEV-PPARγ-(234-505) worked out at 265 nM. Further, the IC50 in the experiment with UM-UC-9 engineered cells is above 5000 nM.

Turning to `COc1cc(-c2cc(C(=O)N3CCC(C(=O)NCC4(C)OCCCO4)CC3)n[nH]2)c(Cl)cn1` [Example 216, 1-(5-(5-chloro-2-methoxypyridin-4-yl)-1H-pyrazole-3-carbonyl)-N-((2-methyl-1,3-dioxan-2-yl)methyl)piperidine-, 1-carboxamide], the AC50 on His6-TEV-PPARγ-(234-505) came to 697 nM. Further, the IC50 in the experiment with UM-UC-9 engineered cells is 3100 nM.

In the case of `COc1cc(-c2cc(C(=O)N3CCC(C(=O)NCc4cn5cc(C)ccc5n4)CC3)n[nH]2)c(Cl)cn1` [Example 217, 1-(5-(5-chloro-2-methoxypyridin-4-yl)-1H-pyrazole-3-carbonyl)-N-((6-methylimidazo[1,2-a]pyridin-2-yl)methyl)piperidine-4-carboxamide], the AC50 at His6-TEV-PPARγ-(234-505) turned out to be 309 nM. In addition, the IC50 in the experiment with UM-UC-9 engineered cells amounted to 3630 nM.

Regarding `COc1cc(-c2cc(C(=O)N3CCC(C(=O)NCc4nn(C)c5ccccc45)CC3)n[nH]2)c(Cl)cn1` [Example 218, 1-(5-(5-chloro-2-methoxypyridin-4-yl)-1H-pyrazole-3-carbonyl)-N-((1-methyl-1H-indazol-3-yl)methyl)piperidine-4-carboxamide], the AC50 at His6-TEV-PPARγ-(234-505) stood at 13.8 nM. In the experiment on UM-UC-9 engineered cells, the IC50 amounted to 138 nM.

Take `COc1cc(-c2cc(C(=O)N3CCC(C(=O)NCc4cn5cc(Cl)ccc5n4)CC3)n[nH]2)c(Cl)cn1` [Example 219, 1-(5-(5-chloro-2-methoxypyridin-4-yl)-1H-pyrazole-3-carbonyl)-N-((6-chloroimidazo[1,2-a]pyridin-2-yl)methyl)piperidine-4-carboxamide]: the AC50 on His6-TEV-PPARγ-(234-505) was 94.5 nM. Besides, in the experiment on UM-UC-9 engineered cells, the IC50 is 1610 nM.

`COc1cc(-c2cc(C(=O)N3CCC(C(=O)NCc4ncoc4C(F)(F)F)CC3)n[nH]2)c(Cl)cn1` [Example 221, 1-(5-(5-chloro-2-methoxypyridin-4-yl)-1H-pyrazole-3-carbonyl)-N-((5-(trifluoromethyl)oxazol-4-yl)methyl)piperidine-4-carboxamide]: at His6-TEV-PPARγ-(234-505), the AC50 stood at 279 nM. The IC50 in the experiment on UM-UC-9 engineered cells was 1730 nM.

As to `COc1cc(-c2cc(C(=O)N3CCC(C(=O)NCc4ccc5c(c4)ncn5C)CC3)n[nH]2)c(Cl)cn1` [Example 223, 1-(5-(5-chloro-2-methoxypyridin-4-yl)-1H-pyrazole-3-carbonyl)-N-((1-methyl-1H-benzo[d]imidazol-5-yl)methyl)piperidine-4-carboxamide], the AC50 at His6-TEV-PPARγ-(234-505) is 628 nM. Also, the IC50 in the experiment with UM-UC-9 engineered cells is above 10000 nM.

Consider `COc1cc(-c2cc(C(=O)N3CCC(C(=O)NCc4cc(C(F)F)on4)CC3)n[nH]2)c(Cl)cn1` [Example 225, 1-(5-(5-chloro-2-methoxypyridin-4-yl)-1H-pyrazole-3-carbonyl)-N-((5-(difluoromethyl)isoxazol-3-yl)methyl)piperidine-4-carboxamide], for which, on His6-TEV-PPARγ-(234-505), the AC50 was 327 nM. Besides, the IC50 in the experiment on UM-UC-9 engineered cells turned out to be 1720 nM.
